Reference: patent publication US6909000B2, “Bridged bicyclic serine protease inhibitors” (Vertex Pharmaceuticals Incorporated, priority 2001, dated 2005)
pIC50, pKi: −log10 of the molar value. Read-outs that look alike come from different tables or passages of the source.

Tests used:
HCV NS3-NS4A protease = HCV NS3-NS4A protease (Hepatitis C virus genotype 1a, UniProt P27958); experiment: Ki determination, HPLC microbore assay with 5AB peptide substrate, tNS3 and KK4A cofactor; assay type: biochemical
Method: The Ki determinations were performed as follows. The Ki values for some compounds of the present invention are recited above in Table 1.
HPLC Microbore Method for Separation of 5AB Substrate and Products Substrate
NH2-Glu-Asp-Val-Val-(alpha)Abu-Cys-Ser-Met-Ser-Tyr-COOH Stock solution of 20 mM 5AB was made in DMSO w/0.2M DTT. This was stored in aliquots at −20 C.
Buffer: 50 mM HEPES, pH 7.8; 20% glycerol; 100 mM NaCl Total assay volume was 200 μL
The buffer was combined with KK4A, DTT, and tNS3; 177 μL of this solution was distributed each into wells of 96 well plate and incubated at 30° C. for ˜5-10 min. 3 μL of appropriate concentration of test compound dissolved in DMSO (DMSO only for control) was added to each well and incubate at 30° C. for 15 min. Reaction was initiated by addition of 20 μL of 200 μM 5AB substrate (20 μM concentration is equivalent or slightly lower than the Km for 5AB) and incubated for 20 min at 30° C. The reaction was terminated by addition of 50 μL of 10% TFA 200 μL aliquots were transferred to HPLC vials The SMSY product was isolated from substrate and KK4A by the method which follows. Microbore Separation Method • Instrumentation: • Hewlett Packard 1100 • Degasser G1322A • Binary pump G1312A • Autosampler G1313A • Column themostated chamber G1316A • Diode array detector G1315A • Column: Phenomenex Jupiter; 5 micron C18; 300 angstroms; • 150×2 mm; P/O 00F-4053-B0 • Column thermostat: 40° C. • Injection volume: 100 μL • Solvent A=HPLC grade water+0.1% TFA • Solvent B=HPLC grade acetonitrile+0.1% TFA
• Stop time: 17 min • Post-run time: 10 min

[1] = test system: Cells containing hepatitis C virus (HCV) replicon; experiment: HCV replicon cell assay, Taqman real-time RT-PCR of HCV RNA level; assay type: cell-based; conditions: read-out: IC50 (concentration at which 50% inhibition of HCV RNA level is observed)
Method: As set forth above, the compounds of this invention are capable of inhibiting the activity of HCV NS3-NS4A protease. In order to quantitate the activity of the compounds of this invention, cells containing HCV replicon were incubated with the compounds of this invention, and a Taqman Real Time PCR assay was conducted to determine the percentage inhibition of HCV RNA level and the IC50 were calculated therefrom. The result are shown below in Table 1:
Cells containing hepatitis C virus (HCV) replicon were maintained in DMEM containing 10% fetal bovine serum (FBS), 0.25 mg per ml of G418, with appropriate supplements (media A).
On day 1, replicon cell monolayer was treated with a trypsin:EDTA mixture, removed, and then dilutedh media A into a final concentration of 100,000 cells per ml wit. 10,000 cells in 100 ul are plated into each well of a 96-well tissue culture plate, and culture overnight in a tissue culture incubator at 37° C.
On day 2, compounds (in 100% DMSO) were serially diluted into DMEM containing 2% FBS, 0.5% DMSO, with appropriate supplements (media B). The final concentration of DMSO was maintained at 0.5% throughout the dilution series.
The media on the replicon cell monolayer was removed, and then media B containing various concentrations of compounds was added. Media B without any compound was added to other wells as no compound controls.
Cells were incubated with compound or 0.5% DMSO in media B for 48 hours in a tissue culture incubator at 37° C.
At the end of the 48-hour incubation, the media was removed, and the replicon cell monolayer was washed once with PBS and stored at −80° C. prior to RNA extraction.
Culture plates with treated replicon cell monolayers were thawed, and a fixed amount of another RNA virus, such as Bovine Viral Diarrhea Virus (BVDV) was added to cells in each well. RNA extraction reagents (such as reagents from RNeasy kits) were added to the cells immediately to avoid degradation of RNA. Total RNA was extracted according the instruction of manufacturer with modification to improve extraction efficiency and consistency. Finally, total cellular RNA, including HCV replicon RNA, was eluted and stored at −80° C. until further processing.
A Taqman real-time RT-PCR quantification assay was set up with two sets of specific primers and probe. One was for HCV and the other was for BVDV. Total RNA extractants from treated HCV replicon cells were added to the PCR reactions for quantification of both HCV and BVDV RNA in the same PCR well. Experimental failure was flagged and rejected based on the level of BVDV RNA in each well. The level of HCV RNA in each well was calculated according to a standard curve that is run in the same PCR plate. The percentage of inhibition or decrease of HCV RNA level due to compound treatment was calculated using the DMSO or no compound control as 0% of inhibition. The IC50 (concentration at which 50% inhibition of HCV RNA level is observed) was calculated from the titration curve of any given compound.

[2] = 25 nM tNS3, 25 μM KK4A, 20 μM 5AB substrate, 30° C., pH 7.8, read-out: Ki
[3] = HCV replicon cells, 48 hours incubation, 2% FBS, 0.5% DMSO

Chain of HCV NS3-NS4A protease (P27958 1027-1208, other chains not shown): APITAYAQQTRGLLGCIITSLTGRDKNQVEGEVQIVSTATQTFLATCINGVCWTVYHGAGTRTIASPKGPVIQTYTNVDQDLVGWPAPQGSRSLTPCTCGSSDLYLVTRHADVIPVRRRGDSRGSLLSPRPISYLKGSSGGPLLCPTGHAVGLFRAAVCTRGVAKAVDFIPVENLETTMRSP

| Structure (SMILES) | pKi (HCV NS3-NS4A protease; [2]) | pIC50 ([1]; 48 h) | pKi (HCV NS3-NS4A protease) | pIC50 [1, 3] |
| --- | --- | --- | --- | --- |
| CCC[C@H](NC(=O)[C@@H]1[C@H]2CC[C@H](C2)N1C(=O)[C@@H](NC(=O)[C@@H](NC(=O)c1cnccn1)C1CCCCC1)C(C)C)C(=O)C(=O)NC1CC1 [Cmpd 1] | 6.66 | < 6.00 |  |  |
| CCC[C@H](NC(=O)C1[C@H]2CC[C@H](C2)N1C(=O)[C@@H](NC(=O)[C@@H](NC(=O)c1cnccn1)C1CCCCC1)C(C)(C)C)C(=O)C(=O)NC1CC1 (some centres unmarked) [Cmpd 2] |  |  | 7.05 | 6.05 |
| CC(C)(C)[C@H](NC(=O)[C@@H](NC(=O)c1cnccn1)C1CCCCC1)C(=O)N1C(C(=O)NC(CC(F)F)C(=O)C(=O)NC2CC2)[C@H]2CC[C@@H]1C2 (some centres unmarked) [Cmpd 3] |  |  | 7.20 | 6.20 |
| CCCC(NC(=O)[C@@H]1[C@H]2CC[C@H](C2)N1C(=O)[C@@H](NC(=O)[C@@H](NC(=O)[C@H](CNC(=O)OC)NC(=O)OC)C1CCCCC1)C(C)C)C(=O)C(=O)NC1CC1 (some centres unmarked) [Cmpd 4] |  |  | 7.02 | < 5.00 |
| CCCC(NC(=O)[C@@H]1[C@H]2CC[C@H](C2)N1C(=O)[C@@H](NC(=O)[C@@H](NC(=O)[C@H](CNC(=O)OC)NC(=O)OC)C1CCCCC1)C(C)(C)C)C(=O)C(=O)NC1CC1 (some centres unmarked) [Cmpd 5] |  |  | 7.41 | 5.85 |
| CCCC(NC(=O)[C@@H]1[C@H]2CC[C@H](C2)N1C(=O)[C@@H](NC(=O)[C@@H](NC(=O)[C@H](CNC(=O)OC)NC(=O)OC)C1CCCCC1)C(C)C)C(=O)C(=O)N[C@@H](C)c1ccccc1 (some centres unmarked) [Cmpd 6] |  |  | 7.02 | 5.58 |
| CCCC(NC(=O)[C@@H]1[C@H]2CC[C@H](C2)N1C(=O)[C@@H](NC(=O)[C@@H](NC(=O)[C@H](CNC(=O)OC)NC(=O)OC)C1CCCCC1)C(C)(C)C)C(=O)C(=O)N[C@@H](C)c1ccccc1 (some centres unmarked) [Cmpd 7] |  |  | 7.31 | 6.35 |
| CCCC(NC(=O)[C@@H]1[C@H]2CC[C@H](C2)N1C(=O)[C@@H](NC(=O)[C@@H](NC(=O)c1cnccn1)C1CCCCC1)C(C)(C)C)C(=O)C(=O)N[C@@H](C)c1ccccc1 (some centres unmarked) [Cmpd 8] |  |  | 6.96 | 6.17 |
| CCC[C@H](NC(=O)[C@@H]1[C@H]2CC[C@H](C2)N1C(=O)[C@@H](NC(=O)[C@@H](NC(=O)[C@H](C)NS(C)(=O)=O)C1CCCCC1)C(C)(C)C)C(=O)C(=O)NC1CC1 [Cmpd 9] | 7.26 | 5.37 |  |  |
| C[C@H](NS(C)(=O)=O)C(=O)N[C@H](C(=O)N[C@H](C(=O)N1[C@@H]2CC[C@@H](C2)[C@H]1C(=O)N[C@@H](CC(F)F)C(=O)C(=O)NC1CC1)C(C)(C)C)C1CCCCC1 [Cmpd 10] |  |  | 7.55 | 5.00 |
| CCCC(NC(=O)[C@@H]1[C@H]2CC[C@H](C2)N1C(=O)[C@@H](NC(=O)[C@@H](NC(=O)[C@H](C)NS(C)(=O)=O)C1CCCCC1)C(C)(C)C)C(=O)C(=O)N[C@@H](C)c1ccccc1 (some centres unmarked) [Cmpd 11] | 7.30 | 5.91 |  |  |
| CCC[C@H](NC(=O)[C@@H]1[C@H]2CC[C@H](C2)N1C(=O)[C@@H](NC(=O)[C@@H](NC(=O)c1ncc[nH]1)C1CCCCC1)C(C)(C)C)C(=O)C(=O)N[C@@H](C)c1ccccc1 [Cmpd 12] |  |  | 7.17 | 6.39 |
| CCC[C@H](NC(=O)[C@@H]1[C@H]2CC[C@H](C2)N1C(=O)[C@@H](NC(=O)[C@@H](NC(=O)c1ncc[nH]1)C1CCCCC1)C(C)(C)C)C(=O)C(=O)NC1CC1 [Cmpd 13] |  |  | 7.38 | 6.60 |
| CCC[C@H](NC(=O)[C@@H]1[C@H]2CC[C@H](CC2)N1C(=O)C(NC(=O)[C@@H](NC(=O)c1cnccn1)C1CCCCC1)C(C)(C)C)C(=O)C(=O)NC1CC1 (some centres unmarked) [Cmpd 14] |  |  | 6.90 | 5.91 |
| CCC[C@H](NC(=O)[C@@H]1[C@H]2CC[C@H](C2)N1C(=O)[C@@H](NC(=O)[C@@H](NC(=O)[C@H](C)NC(=O)C(C)(C)C)C1CCCCC1)C(C)(C)C)C(=O)C(=O)NC1CC1 [Cmpd 15] |  |  | 7.18 | 5.89 |
| CCC[C@H](NC(=O)[C@@H]1[C@H]2CC[C@H](C2)N1C(=O)[C@@H](NC(=O)[C@@H](NC(=O)c1[nH]c(C)c(C)c1C(C)=O)C1CCCCC1)C(C)(C)C)C(=O)C(=O)NC1CC1 [Cmpd 16] |  |  | 7.27 | > 7.00 |
